Results reported in the supplement of paper PMC10307832.

Columns and labels:
Test in all cases: relative viability (nuclei count vs DMSO), 5 days (fraction); higher = more cells survive
Doramapimod + Lapatinib = compound: Cc1ccc(-n2nc(C(C)(C)C)cc2NC(=O)Nc2ccc(OCCN3CCOCC3)c3ccccc23)cc1 [Doramapimod] + CS(=O)(=O)CCNCc1ccc(-c2ccc3ncnc(Nc4ccc(OCc5cccc(F)c5)c(Cl)c4)c3c2)o1 [Lapatinib] (partner 2 µM)
Outline: (§1)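 Lung cancer cell lines in 1536-well plates were dosed by pin tool the day after seeding, either with one drug alone or with a fixed anchor-drug dose plus five library-drug doses (not always all listed) in √10 steps. After 5 days, cells were fixed and their nuclei stained in one step (final 0.05% Triton X-100, 1% formaldehyde, 1 ug/ml Hoechst), then counted on 4× images. Relative viability is the nuclei count in treated wells divided by that in vehicle wells. Values are medians of duplicate plates.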

IPA-3 + Palbociclib = compound: C1=CC=C2C(=C1)C=CC(=C2SSC3=C(C=CC4=CC=CC=C43)O)O [IPA-3] + CC(=O)c1c(C)c2cnc(Nc3ccc(N4CCNCC4)cn3)nc2n(C2CCCC2)c1=O [Palbociclib] (partner 0.5 µM)
Outline: as §1

IPA-3 + Pictilisib = compound: C1=CC=C2C(=C1)C=CC(=C2SSC3=C(C=CC4=CC=CC=C43)O)O [IPA-3] + CS(=O)(=O)N1CCN(Cc2cc3nc(-c4cccc5[nH]ncc45)nc(N4CCOCC4)c3s2)CC1 [Pictilisib] (partner 1 µM)
Outline: as §1

Doramapimod + Olaparib = compound: Cc1ccc(-n2nc(C(C)(C)C)cc2NC(=O)Nc2ccc(OCCN3CCOCC3)c3ccccc23)cc1 [Doramapimod] + O=C(c1cc(Cc2n[nH]c(=O)c3ccccc23)ccc1F)N1CCN(C(=O)C2CC2)CC1 [Olaparib] (partner 8 µM)
Outline: as §1

Cell Line | relative viability (Doramapimod + Lapatinib; first compound 0.02 µM) | relative viability (Doramapimod + Lapatinib; first compound 0.06325 µM) | relative viability (Doramapimod + Lapatinib; first compound 0.2 µM) | relative viability (Doramapimod + Lapatinib; first compound 2 µM) | relative viability (IPA-3 + Palbociclib; first compound 0.2 µM) | relative viability (IPA-3 + Palbociclib; first compound 0.6325 µM) | relative viability (IPA-3 + Palbociclib; first compound 2 µM) | relative viability (IPA-3 + Palbociclib; first compound 6.325 µM) | relative viability (IPA-3 + Palbociclib; first compound 20 µM) | relative viability (IPA-3 + Pictilisib; first compound 0.2 µM) | relative viability (IPA-3 + Pictilisib; first compound 0.6325 µM) | relative viability (IPA-3 + Pictilisib; first compound 2 µM) | relative viability (IPA-3 + Pictilisib; first compound 6.325 µM) | relative viability (IPA-3 + Pictilisib; first compound 20 µM) | relative viability (Doramapimod + Olaparib; first compound 0.02 µM) | relative viability (Doramapimod + Olaparib; first compound 0.06325 µM) | relative viability (Doramapimod + Olaparib; first compound 0.2 µM) | relative viability (Doramapimod + Olaparib; first compound 2 µM) | relative viability (Doramapimod + Lapatinib; first compound 0.6325 µM) | relative viability (Doramapimod + Olaparib; first compound 0.6325 µM)
A-427 | 1.03 | 1.17 | 1.09 | 1.04 | 0.531 | 0.499 | 0.511 | 0.515 | 0.52 | 0.682 | 0.683 | 0.784 | 0.604 | 0.784 | 0.86 | 0.85 | 0.838 | 0.738 |  | 
NCI-H647 | 0.789 | 1.09 | 1.21 | 0.826 | 0.561 | 0.373 | 0.371 | 0.206 | 0.0359 | 0.44 | 0.351 | 0.363 | 0.434 | 0.471 | 0.475 | 0.488 | 0.509 | 0.444 | 1.06 | 0.443
NCI-H1975 | 0.937 | 0.947 | 0.898 | 0.901 | 0.843 | 0.555 | 0.642 | 0.54 | 0.569 | 0.342 | 0.284 | 0.316 | 0.321 | 0.259 | 0.717 | 0.85 | 0.864 | 0.82 | 1.23 | 0.768
NCI-H358 | 0.508 | 0.426 | 0.472 | 0.443 | 0.141 | 0.117 | 0.153 | 0.14 | 0.157 | 0.35 | 0.347 | 0.372 | 0.372 | 0.291 | 0.54 | 0.565 | 0.516 | 0.511 | 0.571 | 0.676
PC-3 [JPC-3] | 0.475 | 0.433 | 0.432 | 0.348 | 0.537 | 0.541 | 0.538 | 0.531 | 0.477 | 0.863 | 0.774 | 0.696 | 0.668 | 0.772 | 1.3 | 1.16 | 1.22 | 1.14 | 0.485 | 1.33
NCI-H596 | 1.03 | 1.15 | 1.14 | 1.07 |  |  |  |  |  | 0.41 | 0.412 | 0.409 | 0.401 | 0.45 | 0.747 | 0.695 | 0.749 | 0.788 | 1.33 | 0.73
EBC-1 | 0.255 | 0.198 | 0.17 | 0.197 |  |  |  |  |  | 0.434 | 0.316 | 0.354 | 0.265 | 0.269 | 0.664 | 0.69 | 0.689 | 0.558 | 0.209 | 0.675
NCI-H1563 | 0.935 | 0.923 | 1.04 | 0.907 |  |  |  |  |  | 0.68 | 0.62 | 0.622 | 0.694 | 0.59 |  |  |  |  | 0.681 | 
SW 900 |  |  |  |  | 0.536 | 0.518 | 0.545 | 0.49 | 0.587 |  |  |  |  |  | 0.842 | 0.728 | 0.895 | 0.846 |  | 0.939
NCI-H1299 | 0.991 | 0.952 | 0.956 | 0.925 |  |  |  |  |  | 0.905 | 0.858 | 0.834 | 0.654 | 0.687 | 0.97 | 0.963 | 0.834 | 0.803 | 0.972 | 0.864
A549 | 0.827 | 0.989 | 0.932 | 0.895 |  |  |  |  |  | 0.607 | 0.445 | 0.713 | 0.483 | 0.696 | 0.376 | 0.3 | 0.299 | 0.269 | 1.24 | 0.3
NCI-H1703 | 1.11 | 0.983 | 0.949 | 0.716 |  |  |  |  |  | 0.261 | 0.21 | 0.25 | 0.253 | 0.246 | 0.533 | 0.513 | 0.384 | 0.31 | 0.987 | 0.38
NCI-H2342 |  |  |  |  | 0.6 | 0.479 | 0.553 | 0.57 | 0.575 |  |  |  |  |  | 0.496 | 0.475 | 0.472 | 0.431 |  | 0.473
Calu-6 | 1.06 | 1.13 | 1.17 | 0.985 |  |  |  |  |  | 1.06 | 0.872 | 0.933 | 0.736 | 0.848 | 0.589 | 0.6 | 0.622 | 0.557 | 1.19 | 0.554
ChaGo-K-1 |  |  |  |  | 0.952 | 0.824 | 0.923 | 0.955 | 1.02 | 0.728 | 0.785 | 0.663 | 0.824 | 0.824 | 0.472 | 0.423 | 0.438 | 0.398 |  | 0.379
LCLC-103H |  |  |  |  | 0.496 | 0.498 | 0.485 | 0.438 | 0.492 | 0.572 | 0.596 | 0.533 | 0.578 | 0.705 | 0.741 | 0.786 | 0.745 | 0.764 |  | 0.758
NCI-H441 |  |  |  |  | 0.244 | 0.213 | 0.198 | 0.169 | 0.185 | 0.479 | 0.457 | 0.41 | 0.462 | 0.427 | 0.45 | 0.501 | 0.45 | 0.356 |  | 0.609
